Among the data in PubChem BioAssay AID2060895 (Molecular Pharmacology Branch, DTP, NCI, 2025) are viability, T/C and IC50 values, retold here.

Values joined by “and” are separate entries in the source; they are usually repeats but may differ in a detail not shown here. Equal values may be shown once. Where only a bound is given, the exact number is not on record here.

For the assay, the system named is PDC 899932-113-R3-J6 complex spheroid viability. Kind of assay: Anticancer human tumor 899932-113-R3-J6-PDC patient-derived melanoma cell line growth inhibition [RAS]. The following applies: for viability, T/C: stronger effect = lower value. The source says:
RAS pathway inhibitors in Combinations in Complex Spheroids
A high-throughput screen of multi-cell type tumor spheroids was designed to identify active combinations of RAS pathway inhibitors and targeted small molecules. Complex spheroids include a stromal component modeled by human endothelial cells (HUVEC) and fibroblasts modeled by human mesenchymal stem cells (MSCs). The concentration ranges selected for each drug and investigational agent were based upon clinically achievable concentrations if the clinical Cmax of the agent was known.
Compounds. The drugs and investigational agents: abemaciclib (NSC768073), cobimetinib (NSC768068), divarasib (GDC6063, NSC841802), docetaxel (NSC628503), GDC-1971 (RLY-1971, NSC841576), gemcitabine (NSC613327), inavolisib (NSC800729), ipatasertib (NSC767898), KB-0742 (NSC834161), MRTX-1133 (NSC836407), osimertinib (NSC779217), RMC-4630 (NSC839698), RMC-6236 (NSC851965), RMC-6291 (NSC852671), Ro-3306 (NSC812927), sapanisertib (NSC764658), SN-38 (NSC673596), staurosporine (NSC755774), SY5609 (NSC837396), and tovorafenib (DAY101, NSC766906), were obtained from the National Cancer Institute (NCI) Developmental Therapeutics Program Chemical Repository. The FDA-approved anticancer drug set is available from the NCI Developmental Therapeutics Program. […] The stock solutions were prepared in dimethyl sulfoxide (DMSO, Sigma-Aldrich, St. Louis, MO, cat. D2650) at 800-fold the tested concentration and stored at -70 degrees C prior to their use. All drugs and investigational agents were tested over a range starting from a high concentration at or near the clinical Cmax and decreasing in half-log increments. If the clinical Cmax for an agent had not been determined, the highest concentration tested was 10 microM.
Cell Culture. All cells were maintained in an incubator at 37 degrees C and 5% CO2 with 95% humidity. The PDC lines were cultured according to standard operating procedures established by the NCI PDMR. All PDCs were thawed and cultured in Matrigel-coated flasks prepared with a working solution of 1X Ham's F-12 nutrient mix, without supplementation (Invitrogen, Waltham, MA, cat. 11765054), 100 U/mL penicillin-streptomycin (Invitrogen, cat. 15140122), and 2.5% Matrigel (Corning Inc., Corning, NY, cat. 354248) for the first three passages. The 362531-283-R-J2-PDC and 782815-120-R-J1-PDC lines were cultured in 6C/Colon 1B media, which includes advanced DMEM/F-12 (Thermo Fisher Scientific, cat. 12634028), 10 mM HEPES (Thermo Fisher Scientific, cat. 15630080), 1X GlutaMAX supplement (Thermo Fisher Scientific, cat. 35050061), 0.1 mg/mL primocin (InvivoGen, San Diego, CA, cat. ant-pm-2), 10% defined fetal bovine serum, heat inactivated (HyClone Laboratories Inc., Logan, UT, cat. SH30070.03HI), 50% L-WRN conditioned media (ATCC, cat. CRL-3276), 1.25 mM N-Acetyl-L-cysteine (Sigma-Aldrich, cat. A9165), 10 mM nicotinamide (Sigma-Aldrich, cat. N0636), 1X B-27 supplement (Thermo Fisher Scientific, cat. 17504044), 1X N-2 supplement (Thermo Fisher Scientific, cat. 17502048), 50 ng/mL human EGF (Thermo Fisher Scientific, cat. PHG0311), and 10 microM Y-27632 dihydrochloride (Tocris Bioscience, cat. 1254). The K12877-001-R-J1-PDC line was cultured in 6I media, which includes all 6C/Colon 1B media plus 10 ng/mL human FGF-10 (PeproTech, cat. 100-26), 1 ng/mL human FGF-2 (PeproTech, cat. 100-18B), 1 µM prostaglandin E2 (Tocris Bioscience, cat. 2296), […] hydrocortisone (Sigma-Aldrich, cat. H4001), and […] bovine insulin (Sigma-Aldrich, cat. I6634). The K86415-001-R-J1-PDC line was cultured in 6D media, which includes all 6C/Colon 1B media components minus the L-WRN conditioned media. The 485176-168-R4-J1-PDC was cultured in PANC media, which includes all 6C/Colon 1B media plus 100 ng/mL human FGF-10 (PeproTech, cat. 100-26), 500 nM SB-431542 (Selleckchem, cat. S1067), and 10 nM gastrin (Tocris Bioscience, cat. 3006). […]

Where [1] appears, read: compound alone, run of 09/09/2024.
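For viability, T/C in this document: spheroids exposed to agents for seven days before readout; 100% = DMSO vehicle control wells.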

With `C#Cc1c(F)ccc2cc(O)cc(-c3ncc4c(N5CC6CCC(C5)N6)nc(OCC56CCCN5CC(F)C6)nc4c3F)c12` (stereo not drawn), the viability, T/C (in general, the ratio of treated to control) is 108% [middle of 8 runs] (compound 0.0316 µM); 109% [middle of 8 runs] (compound 0.1 µM); 107% [middle of 8 runs] (compound 0.316 µM); 112% [middle of 8 runs] (compound 1 µM); 111% [middle of 8 runs] (compound 3.16 µM); 110% [middle of 8 runs] (compound 10 µM). Further, the half-inhibitory concentration (IC50) (as a rule, the point on the concentration scale where inhibition reaches its midpoint) under setting [1] was above 10000 nM.
Consider `C=CC(=O)N1CCN(c2nc(OCC3CCCN3C)nc3c(F)c(-c4nc(N)cc(C)c4C(F)(F)F)c(Cl)cc23)C(C)C1` (stereo not drawn), for which the viability, T/C (compound 0.00316 µM) is 109% [middle of 12 runs]; the viability, T/C (compound 0.01 µM) is 108% [middle of 12 runs]; the viability, T/C (compound 0.0316 µM) was 108% [middle of 12 runs]; the viability, T/C (compound 0.1 µM) is 107% [middle of 12 runs]; the viability, T/C (compound 0.316 µM) was 105% [middle of 12 runs]; the viability, T/C (compound 1 µM) is 103% [middle of 12 runs]. Moreover, the IC50 by setting is: under setting [1], above 1000 nM; (curve of compound) above 1000 nM.
As to `C=CC(=O)Nc1cc(Nc2nccc(-c3cn(C)c4ccccc34)n2)c(OC)cc1N(C)CCN(C)C`, the viability, T/C reads like this: (compound 0.00316 µM) 109% [middle of 4 runs]; (compound 0.01 µM) 98.4% [middle of 4 runs]; (compound 0.0316 µM) 101% [middle of 4 runs]; (compound 0.1 µM) 104% and 102% (2×) and 101%; (compound 0.316 µM) 106% [middle of 4 runs]; (compound 1 µM) 100% [middle of 4 runs]. Moreover, for the setting “curve of compound”, the concentration for half-maximal inhibition (IC50) was above 1000 nM.
In the case of `CC(C)NCC(C(=O)N1CCN(c2ncnc3c2C(C)CC3O)CC1)c1ccc(Cl)cc1` (stereo not drawn), the viability, T/C (compound 0.0316 µM) was 110% [middle of 4 runs]; the viability, T/C (compound 0.1 µM) is 99.1% [middle of 4 runs]; the viability, T/C (compound 0.316 µM) was 97.7% [middle of 4 runs]; the viability, T/C (compound 1 µM) is 84.7% [middle of 4 runs]; the viability, T/C (compound 3.16 µM) is 62.5% [middle of 4 runs]; the viability, T/C (compound 10 µM) is 39.9% [middle of 4 runs]. For the same compound, the IC50 (curve of compound) is 5.72 µM [middle of 4 runs].
In the case of `CC(C)n1nc(-c2ccc3oc(N)nc3c2)c2c(N)ncnc21`, the viability, T/C (compound 0.000316 µM) is 107% [middle of 4 runs]; the viability, T/C (compound 0.001 µM) is 102% [middle of 4 runs]; the viability, T/C (compound 0.00316 µM) is 116% [middle of 4 runs]; the viability, T/C (compound 0.0316 µM) is 71.8% [middle of 4 runs]. The IC50 (curve of compound) is > 100 nM and 76 nM and 69.3 nM.
Regarding `CC(Nc1ccc2c(c1)OCCn1cc(N3C(=O)OCC3C(F)F)nc1-2)C(N)=O` (stereo not drawn), the viability, T/C is 104% [middle of 4 runs] (compound 0.0316 µM); 71.2% [middle of 4 runs] (compound 0.1 µM); 63.9% [middle of 4 runs] (compound 0.316 µM); 58.4% [middle of 4 runs] (compound 1 µM); 46.1% (2×) and 45.7% and 46% (compound 3.16 µM); 35.1% [middle of 4 runs] (compound 10 µM). Moreover, where the note is “curve of compound”, the IC50 was 1.74 µM [middle of 4 runs].
As for `CC1(C)CCC(Nc2ncc(C(F)(F)F)c(-c3c[nH]c4c(P(C)(C)=O)c(C#N)ccc34)n2)CN1` (stereo not drawn), the viability, T/C reads like this: (compound 0.000949 µM) 98.3% [middle of 4 runs]; (compound 0.003 µM) 75.5% [middle of 4 runs]; (compound 0.00949 µM) 53.9% [middle of 4 runs]; (compound 0.03 µM) 44.4% [middle of 4 runs]; (compound 0.0949 µM) 18.4% [middle of 4 runs]; (compound 0.3 µM) 12.9% [middle of 4 runs]. In addition, the half-inhibitory concentration (IC50) (curve of compound) was 15 nM [middle of 4 runs].
For `CCN1CCN(Cc2ccc(Nc3ncc(F)c(-c4cc(F)c5nc(C)n(C(C)C)c5c4)n3)nc2)CC1`, the viability, T/C is 104% [middle of 4 runs] (compound 0.00316 µM); 97.6% [middle of 4 runs] (compound 0.01 µM); 97% [middle of 4 runs] (compound 0.0316 µM); 80.7% [middle of 4 runs] (compound 0.1 µM); 71% [middle of 4 runs] (compound 0.316 µM); 30.1% [middle of 4 runs] (compound 1 µM). In addition, the 50% inhibitory concentration (IC50) (curve of compound) was 583 nM [middle of 4 runs].
Regarding `CCc1c2c(nc3ccc(O)cc13)-c1cc3c(c(=O)n1C2)COC(=O)[C@]3(O)CC`, the viability, T/C is 94.3% [middle of 4 runs] (compound 0.000949 µM); 69.3% [middle of 4 runs] (compound 0.003 µM); 58.9% [middle of 4 runs] (compound 0.00949 µM); 48.3% [middle of 4 runs] (compound 0.03 µM); 42.1% [middle of 4 runs] (compound 0.0949 µM); 32.8% [middle of 4 runs] (compound 0.3 µM).
Regarding `CCn1c(-c2cc(N3CCN(C)CC3)cnc2C(C)OC)c2c3cc(ccc31)-c1csc(n1)CC(NC(=O)C1CC1C)C(=O)N1CCCC(N1)C(=O)OCC(C)(C)C2` (stereo not drawn), the viability, T/C (compound 0.000949 µM) was 76% [middle of 8 runs]; the viability, T/C (compound 0.003 µM) was 38.2% [middle of 8 runs]; the viability, T/C (compound 0.00949 µM) was 3.79% [middle of 8 runs]; the viability, T/C (compound 0.03 µM) was 3.16% [middle of 8 runs]; the viability, T/C (compound 0.0949 µM) was 2.66% [middle of 8 runs]; the viability, T/C (compound 0.3 µM) was 2.33% [middle of 8 runs]. For the same compound, the IC50 (compound alone, run of 08/26/2024) is 2.05 nM [middle of 7 runs].
Take `CCn1c(-c2cccnc2C(C)OC)c2c3cc(ccc31)N1CCOC(CC(NC(=O)C(C(C)C)N(C)C(=O)C3(F)CCN(C(=O)C#CC(C)(C)N(C)C)CC3)C(=O)N3CCCC(N3)C(=O)OCC(C)(C)C2)C1` (stereo not drawn): the viability, T/C (compound 0.000949 µM) is 110% [middle of 8 runs]; the viability, T/C (compound 0.003 µM) was 108% [middle of 8 runs]; the viability, T/C (compound 0.00949 µM) is 105% [middle of 8 runs]; the viability, T/C (compound 0.03 µM) is 106% [middle of 8 runs]; the viability, T/C (compound 0.0949 µM) is 98.7% [middle of 8 runs]; the viability, T/C (compound 0.3 µM) is 92.5% [middle of 8 runs]. Moreover, the IC50 (compound alone, run of 08/20/2024) is above 300 nM.
With `Nc1ccn(C2OC(CO)C(O)C2(F)F)c(=O)n1` (stereo not drawn), the viability, T/C runs as follows: (compound 0.00316 µM) 103% (2×) and 77.4% and 105%; (compound 0.01 µM) 65.5% [middle of 4 runs]; (compound 0.0316 µM) 32.3% [middle of 4 runs]; (compound 0.1 µM) 19.3% [middle of 4 runs]; (compound 0.316 µM) 21% [middle of 4 runs]; (compound 1 µM) 22.2% [middle of 4 runs]. In addition, where the note is “curve of compound”, the half-inhibitory concentration (IC50) was 17 nM and 10.3 nM and 16.8 nM.
Take `O=C(c1ccc(F)c(F)c1Nc1ccc(I)cc1F)N1CC(O)([C@@H]2CCCCN2)C1`: the viability, T/C (compound 0.00316 µM) is 74% [middle of 4 runs]; the viability, T/C (compound 0.0316 µM) is 6.94% [middle of 4 runs]; the viability, T/C (compound 0.1 µM) was 3.21% [middle of 4 runs]; the viability, T/C (compound 0.316 µM) was 1.96% [middle of 4 runs]; the viability, T/C (compound 1 µM) is 1.06% [middle of 4 runs]. Moreover, the 50% inhibitory concentration (IC50) (curve of compound) is 7.85 nM [middle of 4 runs].
